Experimental data taken from ChEMBL document CHEMBL1649429, “Novel plasmid-encoded ceftazidime-hydrolyzing CTX-M-53 extended-spectrum beta-lactamase from Salmonella enterica serotypes Westhampton and Senftenberg” (Antimicrob Agents Chemother, 2009).
Converted amounts (≈) assume the structure as drawn.

Assays:
[1] = Antimicrobial activity against Salmonella enterica serotype Westhampton isolate 04CEB8273SAL expressing CTX-M-53 gene […]; format: functional, Salmonella enterica subsp. enterica serovar Westhampton
[2] = test system: Escherichia coli; experiment: Antimicrobial activity against Escherichia coli DH10B harboring natural plasmid pWES-1 carrying CTX-M-53 gene […]; format: functional; conditions: K-12 DH10B
[3] = test system: Escherichia coli; experiment: Antimicrobial activity against Escherichia coli DH5[alpha] harboring recombinant plasmid carrying CTX-M-53 gene by disk diffusion method; format: functional
[4] = test system: Escherichia coli; experiment: Antimicrobial activity against Escherichia coli DH10B by disk diffusion method; format: functional; conditions: K-12 DH10B
[5] = test system: Escherichia coli; experiment: Antimicrobial activity against Escherichia coli ATCC 25922 by disk diffusion method; format: functional
[6] = Antimicrobial activity against Salmonella enterica serotype Westhampton isolate 04CEB8273SAL expressing CTX-M-53 gene […] in presence of clavulanic acid; format: functional, Salmonella enterica subsp. enterica serovar Westhampton
[7] = test system: Escherichia coli; experiment: Antimicrobial activity against Escherichia coli DH10B harboring natural plasmid pWES-1 carrying CTX-M-53 gene […] in presence of clavulanic acid; format: functional; conditions: K-12 DH10B
[8] = test system: Escherichia coli; experiment: Antimicrobial activity against Escherichia coli DH5[alpha] harboring recombinant plasmid carrying CTX-M-53 gene […] in presence of clavulanic acid; format: functional
[9] = test system: Escherichia coli; experiment: Antimicrobial activity against Escherichia coli DH5[alpha] harboring phagemid pBK-CMV […]; format: functional
[10] = test system: Escherichia coli; experiment: Antimicrobial activity against Escherichia coli DH5[alpha] harboring phagemid pBK-CMV […] in presence of clavulanic acid; format: functional
[11] = test system: Escherichia coli; experiment: Antimicrobial activity against Escherichia coli DH10B […] in presence of clavulanic acid; format: functional; conditions: K-12 DH10B
[12] = test system: Escherichia coli; experiment: Antimicrobial activity against Escherichia coli ATCC 25922 […] in presence of clavulanic acid; format: functional
[13] = Antimicrobial activity against Salmonella enterica serotype Westhampton isolate 04CEB8273SAL CTX-M-53 gene by Etest in presence of clavulanic acid; format: functional, Salmonella enterica subsp. enterica serovar Westhampton
[14] = test system: Escherichia coli; experiment: Antimicrobial activity against Escherichia coli DH10B harboring natural plasmid pWES-1 carrying CTX-M-53 gene by Etest in presence of clavulanic acid; format: functional; conditions: K-12 DH10B
[15] = test system: Escherichia coli; experiment: Antimicrobial activity against Escherichia coli DH5[alpha] harboring recombinant plasmid carrying CTX-M-53 gene by Etest in presence of clavulanic acid; format: functional
[16] = test system: Escherichia coli; experiment: Antimicrobial activity against Escherichia coli DH5[alpha] harboring phagemid pBK-CMV by Etest in presence of clavulanic acid; format: functional
[17] = test system: Escherichia coli; experiment: Antimicrobial activity against Escherichia coli DH10B by Etest in presence of clavulanic acid; format: functional; conditions: K-12 DH10B
[18] = test system: Escherichia coli; experiment: Antimicrobial activity against Escherichia coli ATCC 25922 by Etest in presence of clavulanic acid; format: functional
[19] = Antimicrobial activity against Salmonella enterica serotype Westhampton isolate 04CEB8273SAL expressing CTX-M-53 gene by Etest; format: functional, Salmonella enterica subsp. enterica serovar Westhampton
[20] = test system: Escherichia coli; experiment: Antimicrobial activity against Escherichia coli DH5[alpha] harboring phagemid pBK-CMV by Etest; format: functional
[21] = test system: Escherichia coli; experiment: Antimicrobial activity against Escherichia coli DH10B by Etest; format: functional; conditions: K-12 DH10B
[22] = test system: Escherichia coli; experiment: Antimicrobial activity against Escherichia coli ATCC 25922 by Etest; format: functional
[23] = Antimicrobial activity against Salmonella enterica serotype Westhampton isolate 04CEB8273SAL expressing CTX-M-53 gene […] in presence of Tazobactam; format: functional, Salmonella enterica subsp. enterica serovar Westhampton
[24] = test system: Escherichia coli; experiment: Antimicrobial activity against Escherichia coli DH10B harboring natural plasmid pWES-1 carrying CTX-M-53 gene […] in presence of Tazobactam; format: functional; conditions: K-12 DH10B
[25] = test system: Escherichia coli; experiment: Antimicrobial activity against Escherichia coli DH5[alpha] harboring recombinant plasmid carrying CTX-M-53 gene […] in presence of Tazobactam; format: functional
[26] = test system: Escherichia coli; experiment: Antimicrobial activity against Escherichia coli DH5[alpha] harboring phagemid pBK-CMV […] in presence of Tazobactam; format: functional
[27] = test system: Escherichia coli; experiment: Antimicrobial activity against Escherichia coli DH10B […] in presence of Tazobactam; format: functional; conditions: K-12 DH10B
[28] = test system: Escherichia coli; experiment: Antimicrobial activity against Escherichia coli ATCC 25922 […] in presence of Tazobactam; format: functional

Row | SMILES | MIC [1] | MIC [2] | MIC [3] | MIC [4] | MIC [5] | MIC [9] | also measured
1 | CC1(C)S[C@@H]2[C@H](NC(=O)[C@H](N)c3ccccc3)C(=O)N2[C@H]1C(=O)O [AMPICILLIN] | > 256 µg/mL | > 256 µg/mL | > 256 µg/mL | 4 µg/mL (≈ 11.4 µM) | 4 µg/mL (≈ 11.4 µM) |  | 
2 | CO/N=C(\C(=O)N[C@@H]1C(=O)N2C(C(=O)[O-])=C(C[N+]3(C)CCCC3)CS[C@H]12)c1csc(N)n1 | > 32 µg/mL | 32 µg/mL (≈ 66.6 µM) | > 32 µg/mL | 0.125 µg/mL (≈ 0.26 µM) |  |  | 
3 | CC1(C)S[C@@H]2[C@H](NC(=O)[C@H](C(=O)O)c3ccsc3)C(=O)N2[C@H]1C(=O)O [TICARCILLIN] | > 256 µg/mL | > 256 µg/mL | > 256 µg/mL | 8 µg/mL (≈ 20.8 µM) | 8 µg/mL (≈ 20.8 µM) | 2 µg/mL (≈ 5.2 µM) | MIC [6]: 128 µg/mL; MIC [7]: 32 µg/mL; MIC [8]: 32 µg/mL; MIC [10]: 2 µg/mL; MIC [11]: 2 µg/mL; MIC [12]: 4 µg/mL
4 | CO/N=C(\C(=O)N[C@@H]1C(=O)N2C(C(=O)O)=C(COC(C)=O)CS[C@H]12)c1csc(N)n1 [CEFOTAXIME] |  |  |  |  |  |  | MIC [13]: 1 µg/mL; MIC [14]: 0.125 µg/mL; MIC [15]: 0.06 µg/mL; MIC [16]: < 0.06 µg/mL; MIC [17]: 0.125 µg/mL; MIC [18]: 0.06 µg/mL
5 | CO[C@@]1(NC(=O)Cc2cccs2)C(=O)N2C(C(=O)O)=C(COC(N)=O)CS[C@@H]21 [CEFOXITIN] | 8 µg/mL (≈ 18.7 µM) | 4 µg/mL (≈ 9.36 µM) | 4 µg/mL | 4 µg/mL (≈ 9.36 µM) | 2 µg/mL (≈ 4.68 µM) | 2 µg/mL (≈ 4.68 µM) | 
6 | C[C@@H](O)[C@H]1C(=O)N2C(C(=O)O)=C(SCCNC=N)C[C@H]12 [IMIPENEM ANHYDROUS] | 0.5 µg/mL (≈ 1.67 µM) |  |  |  |  |  | 
7 | CC1(C)S[C@@H]2[C@H](NC(=O)[C@H](N)c3ccc(O)cc3)C(=O)N2[C@H]1C(=O)O [AMOXICILLIN] |  |  |  |  |  |  | MIC [6]: 8 µg/mL; MIC [7]: 8 µg/mL; MIC [8]: 8 µg/mL; MIC [10]: 4 µg/mL; MIC [11]: 8 µg/mL; MIC [12]: 8 µg/mL
8 | CC(C)(O/N=C(\C(=O)N[C@@H]1C(=O)N2C(C(=O)[O-])=C(C[n+]3ccccc3)CS[C@H]12)c1csc(N)n1)C(=O)O [CEFTAZIDIME] | > 256 µg/mL | 64 µg/mL (≈ 117 µM) | 64 µg/mL | 0.5 µg/mL (≈ 0.915 µM) | 0.25 µg/mL (≈ 0.457 µM) | 0.125 µg/mL (≈ 0.229 µM) | MIC [6]: 2 µg/mL; MIC [7]: 0.5 µg/mL; MIC [8]: 0.125 µg/mL; MIC [10]: 0.125 µg/mL; MIC [11]: 0.5 µg/mL; MIC [12]: 0.125 µg/mL
9 | C[C@H]1[C@H](NC(=O)/C(=N\OC(C)(C)C(=O)O)c2csc(N)n2)C(=O)N1S(=O)(=O)O [AZTREONAM] | > 256 µg/mL | 128 µg/mL (≈ 294 µM) | 128 µg/mL | 0.25 µg/mL (≈ 0.574 µM) | 0.06 µg/mL (≈ 0.138 µM) | < 0.06 µg/mL | 
10 | CO/N=C(\C(=O)N[C@@H]1C(=O)N2C(C(=O)O)=C(CSc3nc(=O)c(O)nn3C)CS[C@H]12)c1csc(N)n1 [CEFTRIAXONE] |  |  |  |  |  |  | MIC [19]: > 256 µg/mL; MIC [20]: < 0.06 µg/mL; MIC [21]: 0.125 µg/mL (≈ 0.225 µM); MIC [22]: 0.06 µg/mL (≈ 0.108 µM)
11 | CCN1CCN(C(=O)N[C@@H](C(=O)N[C@@H]2C(=O)N3[C@@H]2SC(C)(C)[C@@H]3C(=O)O)c2ccccc2)C(=O)C1=O [PIPERACILLIN] | > 256 µg/mL | > 256 µg/mL | > 256 µg/mL | 2 µg/mL (≈ 3.86 µM) | 2 µg/mL (≈ 3.86 µM) | 1 µg/mL (≈ 1.93 µM) | MIC [23]: 16 µg/mL; MIC [24]: 4 µg/mL; MIC [25]: 2 µg/mL; MIC [26]: 1 µg/mL; MIC [27]: 4 µg/mL; MIC [28]: 2 µg/mL
